The results in this text go back to patent US12281118B2, “Nitrogen-containing fused heterocyclic SHP2 inhibitor compound, preparation method, and use” (SHANGHAI RINGENE BIOPHARMA CO., LTD., priority 2018, dated 2025).

The target of one assay is SHP2 enzyme (Homo sapiens (Human), UniProt Q06124). In words: Inhibitory activity against SHP2 enzyme (Caliper conversion rate). The class given is biochemical. The conditions noted are these: read-out: SHP2 Enzyme Inhibition IC50 Value. How it is done:
(1) Preparing 1×Reaction Buffer according to the BPS Biosciences' Instructions for Use of the SHP2 enzyme. (2) Preparing a compound concentration gradient: Test the test compound at 10 μM under 3× dilution for 10 concentrations, diluting to a 100% dimethyl sulfoxide solution at a 100× final concentration in a 384-well plate, and diluting the compound with Precision 4× for 10 concentrations. Transferring 250 nL of the compound at the 100× final concentration to a target plate OptiPlate-384F using a dispenser Echo 550. […] (3) Preparing the activation peptide solution at a 5× final concentration with the 1×Reaction Buffer, adding 5 μL of the solution to a reaction plate, respectively, and centrifuging at 1000 rpm for 1 min. (4) Preparing an enzyme solution at a 2.5× final concentration with the 1×Reaction Buffer, adding 10 μL of the solution to the reaction plate, respectively, centrifuging at 1000 rpm for 1 min, and incubating at room temperature for 60 min. (5) Preparing a substrate peptide solution at a 2.5× final concentration with the 1×Reaction Buffer, centrifuging at 1000 rpm for 1 min, and incubating at room temperature for 30 min. (6) Adding 30 μL of stop test solution to stop the reaction, centrifuging at 1000 rpm for […], and mixing well by shaking. (7) Reading the conversion rate with a Caliper EZ Reader. (7) Data analysis:
Wherein: Conversion %/_sample is the reading of a conversion rate of a sample; Conversion %_min: mean of negative control wells, which represents the reading of a conversion rate in absence of enzyme activity wells; Conversion %_max: mean of a ratio of positive control wells, which represents the reading of a conversion rate in absence of compound inhibition wells.

The next assay relates to MV4-11 leukemia cells. The experiment in a line: Inhibition of proliferation of MV4-11 leukemia cells (CellTiter-Glo, 72 h). The class given is cell-based. The following applies: Homo sapiens, read-out: IC50 value, MV4-11 cell proliferation. How it is done:
Specific experimental procedures: 1) At Day 0: Inoculating trypsin-digested cells in 96-well plate and suspending the plate in cell culture medium; measure cell density using an automatic cell counter, diluting the cells with the culture medium to appropriate density, adding 100 μl of cell suspension in the 96-well plate, and incubating a cell-free medium as a control well in a cell incubator with […] at 37° C. overnight; 2) Day 1: Treating test compounds of the cells using a drug for a total of 8 concentrations, and diluting at a 3× concentration, wherein 10 μM is a starting test concentration of the test compounds. […] IC50 values are obtained by a four-parameter regression using software attached to the plate reader (the specific results are shown in Table 2).

Structures are written as SMILES. Read-outs that look alike come from different tables or passages of the source. Where only a bound is given, the exact number is not on record here.

Sequence of SHP2 enzyme (Q06124 whole entry): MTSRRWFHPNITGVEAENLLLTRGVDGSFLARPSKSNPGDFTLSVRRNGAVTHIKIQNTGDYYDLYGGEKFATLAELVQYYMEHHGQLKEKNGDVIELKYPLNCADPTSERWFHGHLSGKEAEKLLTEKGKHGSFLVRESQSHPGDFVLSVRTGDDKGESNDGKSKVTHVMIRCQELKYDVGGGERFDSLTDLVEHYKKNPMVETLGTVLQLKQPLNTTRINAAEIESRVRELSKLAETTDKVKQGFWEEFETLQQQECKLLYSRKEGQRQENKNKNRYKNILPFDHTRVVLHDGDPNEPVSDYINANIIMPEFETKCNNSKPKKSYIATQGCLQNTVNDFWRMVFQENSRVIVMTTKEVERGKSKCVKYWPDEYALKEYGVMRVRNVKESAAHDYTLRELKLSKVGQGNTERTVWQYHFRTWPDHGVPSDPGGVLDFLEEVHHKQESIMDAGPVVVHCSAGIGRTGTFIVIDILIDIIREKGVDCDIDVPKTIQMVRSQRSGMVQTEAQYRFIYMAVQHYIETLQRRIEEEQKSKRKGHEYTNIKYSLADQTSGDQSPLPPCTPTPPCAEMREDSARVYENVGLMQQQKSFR

In the case of `Cc1nc(N2CCC(C)(N)CC2)n2ccnc2c1-c1cccc(Cl)c1Cl` [Comparative Compound 1, 1-(8-(2,3-dichlorophenyl)-7-methylimidazo [1,2-c]pyrimidin-5-yl)-4-methylpiperidin-4-amine, reference compound], the IC50 at SHP2 enzyme amounted to 0.141 µM; in the assay with MV4-11 leukemia cells (MV4-11, 72 h), 1.41 µM. For `CC1(N)CCN(c2ncc(-c3cccc(Cl)c3Cl)c3nccn23)CC1` [Comparative Compound 2, 1-(8-(2,3-dichlorophenyl)imidazo [1,2-c]pyrimidin-5-yl)-4-methylpiperidin-4-amine, reference compound], the IC50 on SHP2 enzyme is 3.46 µM; in the assay with MV4-11 leukemia cells (MV4-11, 72 h), above 10 µM. Consider `Cc1nc(N2CCC3(CC2)Cc2ccccc2[C@H]3N)n2ccnc2c1Sc1cccnc1C(F)(F)F` [Example 2], for which, in the assay on MV4-11 leukemia cells (MV4-11, 72 h), the IC50 worked out at 0.0313 µM.

With `Cc1nc(N2CCC3(CC2)Cc2ccccc2[C@H]3N)n2ccnc2c1Sc1ccnc(NC2CC2)c1Cl` [Example 3, (S)-1′-(8-((3-chloro-2-(cyclopropylamino)pyridin-4-yl)thio)-7-methylimidazo [1,2-c]pyrimidin-5-yl)-1,3-dihydrospiro [indene-2,4′-piperidine]-1-amine], the IC50 worked out at 0.001 µM at SHP2 enzyme and 0.0028 µM in the assay on MV4-11 leukemia cells (MV4-11, 72 h). The like results for `Nc1nc(N2CCC3(CC2)Cc2ccccc2[C@H]3N)n2ccnc2c1Sc1cccnc1C(F)(F)F` [Example 5] were, in that order, 0.0008 µM and below 0.0015 µM. In the same order, the values of `Cc1nc(N2CCC3(CC2)Cc2ncccc2[C@H]3N)n2ccnc2c1Sc1ccnc(N)c1Cl` [Example 6, (S)-1′-(8-((2-amino-3-chloropyridin-4-yl)thio)-7-methylimidazo [1,2-c]pyrimidin-5-yl)-5,7-dihydrospiro [cyclopentano [b]pyridine-6,4′-piperidine]-5-amine] are 0.0013 µM and 0.0087 µM. The like results for `COc1ccc2c(c1)[C@@H](N)C1(CCN(c3nc(C)c(Sc4ccnc(N)c4Cl)c4nccn34)CC1)C2` [Example 7, (S)-1′-(8-((2-amino-3-chloropyridin-4-yl)thio)-7-methylimidazo [1,2-c]pyrimidin-5-yl)-6-methoxy-1,3-dihydrospiro [indene-2,4′-piperidine]-1-amine] were, in that order, 0.0021 µM and 0.0093 µM. Take `Cc1nc(N2CCC3(CC2)Cc2cc(F)c(F)cc2[C@H]3N)n2ccnc2c1Sc1ccnc(N)c1Cl` [Example 8, (S)-1′-(8-((2-amino-3-chloropyridin-4-yl)thio)-7-methylimidazo [1,2-c]pyrimidin-5-yl)-5,6-difluoro-1,3-dihydrospiro [indene-2,4′-piperidine]-1-amine]: the IC50 stood at 0.0037 µM on SHP2 enzyme and 0.012 µM in the assay on MV4-11 leukemia cells (MV4-11, 72 h). The like results for `Nc1nccc(Sc2c(CF)nc(N3CCC4(CC3)Cc3ccccc3[C@H]4N)n3ccnc23)c1Cl` [Example 12, (S)-1′-(8-((2-amino-3-chloropyridin-4-yl)thio)-7-(fluoromethyl)imidazo [1,2-c]pyrimidin-5-yl)-1,3-dihydrospiro [indene-2,4′-piperidine]-1-amine] were, in that order, 0.0029 µM and 0.0247 µM. As for `Cc1nc(N2CCC3(CC2)Oc2ccccc2[C@H]3N)n2ccnc2c1Sc1ccnc(N)c1Cl` [Example 13, (R)-1′-(8-((2-amino-3-chloropyridin-4-yl)thio)-7-methylimidazo [1,2-c]pyrimidin-5-yl)-3H-spiro [benzofuran-2,4′-piperidine]-3-amine], the IC50 at SHP2 enzyme turned out to be 0.0018 µM; in the assay with MV4-11 leukemia cells (MV4-11, 72 h) it was 0.0392 µM. On to `Cc1nc(N2CCC3(CC2)Cc2ncsc2[C@H]3N)n2ccnc2c1Sc1ccnc(N)c1Cl` [Example 14, (S)-1′-(8-((2-amino-3-chloropyridin-4-yl)thio)-7-methylimidazo [1,2-c]pyrimidin-5-yl)-4,6-dihydrospiro [cyclopentano [d]thiazol-5,4′-piperidine]-6-amine], for which the IC50 at SHP2 enzyme came to 0.0031 µM; in the assay on MV4-11 leukemia cells (MV4-11, 72 h) it was 0.0184 µM. For the compound `Cc1nc(N2CCC3(CC2)Cc2ccccc2[C@H]3N)n2ccnc2c1-c1ccnc(N)c1Cl` [Example 15, (S)-1′-(8-(2-amino-3-chloropyridin-4-yl)-7-methylimidazo [1,2-c]pyrimidin-5-yl)-1,3-dihydrospiro [indene-2,4′-piperidine]-1-amine], the IC50 at SHP2 enzyme was found to be 0.0121 µM; with MV4-11 leukemia cells (MV4-11, 72 h), 0.135 µM. On to `Cc1nc(N2CCC3(CC2)Cc2ccccc2[C@H]3N)n2ccnc2c1-c1cccnc1C(F)(F)F` [Example 16, (S)-1′-(7-methyl-8-(2-(trifluoromethyl)pyridin-3-yl)imidazo [1,2-c]pyrimidin-5-yl)-1,3-dihydrospiro [indene-2,4′-piperidine]-1-amine], for which the IC50 came to 0.0095 µM on SHP2 enzyme and 0.108 µM in the assay with MV4-11 leukemia cells (MV4-11, 72 h).

Turning to `Cc1cc(N2CCC3(CC2)Cc2ccccc2[C@H]3N)n2ccnc2c1Sc1ccnc(N)c1Cl` [Example 17, (S)-1′-(8-((2-amino-3-chloropyridin-4-yl)thio)-7-methylimidazo [1,2-a]pyridin-5-yl)-1,3-dihydrospiro [indene-2,4′-piperidine]-1-amine], the IC50 on SHP2 enzyme stood at 0.0091 µM; in the assay with MV4-11 leukemia cells (MV4-11, 72 h) it was 0.048 µM.

Regarding `Cc1cc(N2CCC3(CC2)Cc2ccccc2[C@H]3N)n2cnnc2c1Sc1ccnc(N)c1Cl` [Example 18, (S)-1′-(8-((2-amino-3-chloropyridin-4-yl)thio)-7-methyl-[1,2,4]triazolo [4,3-a]pyridin-5-yl)-1,3-dihydrospiro [indene-2,4′-piperidine]-1-amine], the IC50 on SHP2 enzyme came out at 0.0246 µM; with MV4-11 leukemia cells (MV4-11, 72 h) it was 0.86 µM. With `Cc1cc(N2CCC3(CC2)Cc2ccccc2[C@H]3N)n2ncnc2c1Sc1ccnc(N)c1Cl` [Example 19, (S)-1′-(8-((2-amino-3-chloropyridin-4-yl)thio)-7-methyl-[1,2,4]triazolo [1,5-a]pyridin-5-yl)-1,3-dihydrospiro [indene-2,4′-piperidine]-1-amine], the IC50 was determined as 0.0295 µM on SHP2 enzyme and 0.687 µM in the assay with MV4-11 leukemia cells (MV4-11, 72 h). For `Cc1nc(N2CCC3(CC2)Cc2ccccc2C3N)n2ccnc2c1Sc1ccnc(N)c1Cl` (stereo not drawn) [Example 20, 1′-(8-((2-amino-3-chloropyridin-4-yl)thio)-7-methylimidazo [1,2-c]pyrimidin-5-yl)-1,3-dihydrospiro [indene-2,4′-piperidine]-1-amine], the IC50 at SHP2 enzyme was 0.0038 µM; with MV4-11 leukemia cells (MV4-11, 72 h), 0.0094 µM. Regarding `Cc1nc(N2CCC(C)(N)CC2)n2ncnc2c1-c1cccc(Cl)c1Cl` [Example 21, 1-(8-(2,3-dichlorophenyl)-7-methyl-[1,2,4]triazole [1,5-c]pyrimidin-5-yl)-4-methylpiperidin-4-amine], in the assay on MV4-11 leukemia cells (MV4-11, 72 h, in uM), the IC50 is above 10 µM.

Take `Cc1nc(N2CCC(C)(N)CC2)n2cnnc2c1-c1cccc(Cl)c1Cl` [Example 22, 1-(8-(2,3-dichlorophenyl)-7-methyl-[1,2,4]triazole [4,3-c]pyrimidin-5-yl)-4-methylpiperidin-4-amine]: the IC50 with MV4-11 leukemia cells (MV4-11, 72 h, in uM) is above 10 µM. Same read-out and setting: the figure for `Cc1cc(N2CCC(C)(N)CC2)n2cnnc2c1-c1cccc(Cl)c1Cl` [Example 23, 1-(8-(2,3-dichlorophenyl)-7-methyl-[1,2,4]triazole [4,3-a]pyridin-5-yl)-4-methylpiperidin-4-amine] is above 10 µM. Consider `Cc1cc(N2CCC(C)(N)CC2)n2ccnc2c1-c1cccc(Cl)c1Cl` [Example 24, 1-(8-(2,3-dichlorophenyl)-7-methylimidazolo [1,2-a]pyridin-5-yl)-4-methylpiperidin-4-amine], for which the IC50 at SHP2 enzyme was 0.706 µM; in the assay with MV4-11 leukemia cells (MV4-11, 72 h, in uM) it was 5.4 µM.

For `Cc1nc(N2CCC(C)(N)CC2)n2ccnc2c1Sc1cccc(Cl)c1Cl` [Example 25, 1-(8 ((2,3-dichlorophenyl)sulfanyl)-7-methylimidazole [1,2-c]pyrimidin-5-yl)-4-methylpiperidin-4-amine], the IC50 in the assay with MV4-11 leukemia cells (MV4-11, 72 h) was found to be 1.36 µM. Take `Cc1nc(N2CCC3(CCC[C@H]3N)CC2)n2ccnc2c1Sc1ccnc(N)c1Cl` [Example 26, (R)-8-(8-((2-amino-3-chloropyridin-4-yl)thio)-7-methylimidazole [1,2-c]pyrimidin-5-yl)-8-azaspiro [4.5] quin-1-amine]: the IC50 at SHP2 enzyme was 0.0061 µM; in the assay on MV4-11 leukemia cells (MV4-11, 72 h), 0.147 µM. `CC1(N)CCN(c2nc(CF)c(-c3cccc(Cl)c3Cl)c3nccn23)CC1` [Example 28, 1-(8-(2,3-dichlorophenyl)-7-(fluoromethylene)imidazole [1,2-c]pyrimidin-5-yl)-4-methylpiperidin-4-amine]: the IC50 with MV4-11 leukemia cells (MV4-11, 72 h) was found to be 2.01 µM.
